The results in this text go back to patent US7358258B2, “Prodrugs of an ERK protein kinase inhibitor” (Vertex Pharmaceuticals Incorporated, priority 2004, dated 2008).

This series can be described thus: Water solubility at the designated pH. Type of series: physicochemical. An excerpt:
As described herein, the present compounds are useful as prodrugs and, accordingly, impart improved physical and/or physiological characteristics over the parent compound. Such characteristics include half-life and water solubility. In certain embodiments, a compound of the present invention provides improvement with regard to one or more physical or physiological characteristics. In other embodiments, a compound of the present invention imparts improvement with regard to one or more physical and physiological characteristics. A summary of the results of comparison between certain compounds of the present invention and the parent compound is set forth in Table 3 below wherein all pharmacokinetic data reported was obtained in rat.
As used herein, the phrase “Relative AUC” refers to the ration of the area under the curve for a compound of the present invention and the area under the curve for the parent compound. Unless otherwise indicated, the data was obtained for the designated compound as the free base. The term “T½ (hr)” refers to the half life of the compound in hours. As used in Table 3, the term “Solubility” relates to the water solubility of the designated compound in mg per mL at the designated pH.

In brackets after ≈: the same amount, converted by molar mass. Counter-ions that a name gives are not always drawn.

Turning to `CC[C@H](COP(=O)(O)O)Nc1ncc(C)c(-c2c[nH]c(C(=O)N[C@H](COP(=O)(O)O)c3cccc(Cl)c3)c2)n1` [I-23 (Na salt)], the solubility – broadly, the dissolved amount per volume that the medium holds – (water solubility at pH 7.15) was found to be 3800 µg/mL.

`CC[C@H](COC(C)=O)Nc1ncc(C)c(-c2c[nH]c(C(=O)N[C@H](COC(C)=O)c3cccc(Cl)c3)c2)n1` [I-1 (HCl salt)] yielded a solubility (water solubility at pH 2.2) of 19000 µg/mL.

Consider `CC[C@H](COC(=O)[C@@H](N)C(C)C)Nc1ncc(C)c(-c2c[nH]c(C(=O)N[C@H](COC(=O)[C@@H](N)C(C)C)c3cccc(Cl)c3)c2)n1` [Compound I-10, 2-(S)-Amino-3-methyl-butyric acid 2-(4-{5-[2-(2-(S)-amino-3-methyl-butyryloxy)-1-(3-chloro-(S)-phenyl)-ethylcarbamoyl]-1H-pyrrol-3-yl}-5-methyl-pyrimidin-2-ylamino)-(S)-butyl ester], for which the solubility (water solubility at pH 3.3) is 11500 µg/mL (≈ 17.9 mM). On to `CC[C@H](COC(=O)[C@@H](NC)C(C)C)Nc1ncc(C)c(-c2c[nH]c(C(=O)N[C@H](COC(=O)[C@@H](NC)C(C)C)c3cccc(Cl)c3)c2)n1` [I-20 (HCl salt), 3-Methyl-2-methylamino-butyric acid 2-(4-{5-[1-(3-chloro-phenyl)-2-(3-methyl-2-methylamino-butyryloxy)-ethylcarbamoyl]-1H-pyrrol-3-yl}-5-methyl-pyrimidin-2-ylamino)-butyl ester, tris HCl salt], for which the solubility (water solubility at pH 3.8) is 7710 µg/mL.

Where the note is “water solubility at pH 2.5”, `CC[C@H](COC(=O)COCCOC)Nc1ncc(C)c(-c2c[nH]c(C(=O)N[C@H](COC(=O)COCCOC)c3cccc(Cl)c3)c2)n1` [I-21 Ms salt] yielded a solubility of 12400 µg/mL. On to `CCC(CO)Nc1ncc(C)c(-c2c[nH]c(C(=O)NC(CO)c3cccc(Cl)c3)c2)n1` (centres unmarked) [Parent, 4-[2-(1-hydroxymethyl-propylamino)-5-methyl-pyrimidin-4-yl]-1H-pyrrole-2-carboxylic acid [1-(3-chloro-phenyl)-2-hydroxy-ethyl]-amide, reference compound], for which the solubility (water solubility at pH 1) was determined as 4700 µg/mL (≈ 10.6 mM) and the concentration in solution (water solubility at pH 7) (solubility) was 15 µg/mL (≈ 0.0338 mM). As for `CC[C@H](COC(=O)CCC(=O)O)Nc1ncc(C)c(-c2c[nH]c(C(=O)N[C@H](COC(=O)CCC(=O)O)c3cccc(Cl)c3)c2)n1` [Compound I-18, Succinic acid, mono-[2-(4-{5-[2-(3-carboxy-propionyloxy)-1-(3-chloro-(S)-phenyl)-ethylcarbamyl]-1H-pyrrol-3-yl}-5-methyl-pyrimidin-2-ylamino)-(S)-butyl]ester], the solubility (water solubility at pH 6.87) came out at 12600 µg/mL (≈ 19.6 mM).
